Measured values: ChEMBL document CHEMBL1201862, “PubChem BioAssay data set” (2004)
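Five compound concentrations were applied to cells in 96-well plates for 48 hours; endpoints were derived by simple linear interpolation of the resulting dose-response curve. Abbreviation: GI50, concentration required for 50% inhibition of growth.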 Activity calls are given as the source filed them. Cut-off read from the data, not from the text of the source: active = GI50 up to about 1.1 µM and inactive = higher.

Columns and labels:
Experiment in all cases: NCI tumour cell line growth inhibition, 48 h
T47D = system: T47D
CCRF-CEM = system: CCRF-CEM
SK-MEL-28 = system: SK-MEL-28
COLO 205 = system: COLO 205
KM12 = system: KM12
SK-OV-3 = system: SK-OV-3
MDA-MB-231 = system: MDA-MB-231
SW-620 = system: SW-620
LOX IMVI = system: LOX IMVI
SNB-19 = system: SNB-19
DU-145 = system: DU-145
HOP-62 = system: HOP-62
SK-MEL-2 = system: SK-MEL-2
OVCAR-5 = system: OVCAR-5
MOLT-4 = system: MOLT-4
HCC 2998 = system: HCC 2998
RPMI-8226 = system: RPMI-8226
MDA-N = system: MDA-N
OVCAR-8 = system: OVCAR-8
RXF 393 = system: RXF 393

Measured: GI50

CCOC(=O)CCNC(=O)c1cc(C)cc2c1Oc1c(cc(C)cc1C(=O)NCCC(=O)OCC)S2
inactive: T47D 28.8 µM | CCRF-CEM > 100 µM | SK-MEL-28 > 100 µM | COLO 205 > 100 µM | KM12 > 100 µM | SK-OV-3 > 100 µM | MDA-MB-231 25.2 µM | SW-620 > 100 µM | LOX IMVI 95.9 µM | SNB-19 42 µM | DU-145 > 100 µM | HOP-62 56.4 µM | SK-MEL-2 90.8 µM | OVCAR-5 > 100 µM | MOLT-4 > 100 µM | HCC 2998 > 100 µM | RPMI-8226 > 100 µM | MDA-N 88.3 µM | OVCAR-8 78.3 µM | RXF 393 20.9 µM
